The nature of the test: Inhibition of CCL3 induced chemotaxis in human T lymphocytes.
In general, IC50 refers to the concentration that gives 50% inhibition. Higher therefore signals weaker potency. `CNC(=O)[C@H](CC(C)C)C[C@H](O)[C@H](CC1CCCCC1)NC(=O)c1cnc2ccccc2c1` [Quinoline-3-carboxylic acid ((1S,2S,7R)-1-cyclohexylmethyl-2-hydroxy-6-methyl-4-methylcarbamoyl-heptyl)-amide] displayed an IC50 of 840 nM.
Consider `CC(C)(F)CCC(C[C@H](O)[C@H](Cc1ccccc1)NC(=O)c1cnc2ccccc2n1)C(=O)NCc1ccccc1` (stereo partly drawn) [Quinoxaline-2-carboxylic acid ((1S,2S)-1-benzyl-4-benzylcarbamoyl-7-fluoro-2-hydroxy-7-methyl-octyl)-amide], for which the IC50 is 440 nM.
On to `NC(=O)C(C[C@H](O)[C@H](Cc1ccccc1)NC(=O)c1cnc2ccccc2n1)C1CCCCC1` (stereo partly drawn) [Quinoxaline-2-carboxylic acid ((1S,2S)-1-benzyl-4-carbamoyl-4-cyclohexyl-2-hydroxy-butyl)-amide], for which the half-maximal inhibitory concentration (IC50) amounted to 5 nM.
Consider `CCNC(=O)C(CCC(C)(C)F)C[C@H](O)[C@H](Cc1ccccc1)NC(=O)c1cnc2ccccc2n1` (stereo partly drawn) [Quinoxaline-2-carboxylic acid ((1S,2S)-1-benzyl-4-ethylcarbamoyl-7-fluoro-2-hydroxy-7-methyl-octyl)-amide], for which the IC50 is 130 nM.
As to `CC(C)(F)CCC(C[C@H](O)[C@H](Cc1ccccc1)NC(=O)c1cnc2ccccc2n1)C(=O)NO` (stereo partly drawn) [Quinoxaline-2-carboxylic acid ((1S,2S)-1-benzyl-7-fluoro-2-hydroxy-4-hydroxycarbamoyl-7-methyl-octyl)-amide], the IC50 turned out to be 31 nM.
With `CC(C)(F)CCC(C[C@H](O)[C@H](Cc1ccccc1)NC(=O)c1cnc2ccccc2n1)C(=O)NN` (stereo partly drawn) [Quinoxaline-2-carboxylic acid ((1S,2S)-1-benzyl-7-fluoro-4-hydrazinocarbonyl-2-hydroxy-7-methyl-octyl)-amide], the concentration for half-maximal inhibition (IC50) worked out at 1 nM.
On to `CC(C)(O)CC[C@H](C[C@H](O)[C@H](Cc1ccccc1)NC(=O)c1cnc2ccccc2n1)C(N)=O` [Quinoxaline-2-carboxylic acid ((1S,2S,4R)-1-benzyl-4-carbamoyl-2,7-dihydroxy-7-methyl-octyl)-amide], for which the IC50 came to 1180 nM.
The figure for `CC(C)CC[C@H](C[C@H](O)[C@H](Cc1ccccc1)NC(=O)c1cnc2ccccc2n1)C(N)=O` [Quinoxaline-2-carboxylic acid ((1S,2S,4R)-1-benzyl-4-carbamoyl-2-hydroxy-7-methyl-octyl)-amide] is 2 nM; for `CC(C)(F)CC[C@H](C[C@H](O)[C@H](Cc1ccccc1)NC(=O)c1cnc2ccccc2n1)C(N)=O` [Quinoxaline-2-carboxylic acid ((1S,2S,4R)-1-benzyl-4-carbamoyl-7-fluoro-2-hydroxy-7-methyl-octyl)-amide] it is 13 nM; for `O=C(N[C@@H](Cc1ccccc1)[C@@H](O)CC(C(=O)NO)C1CCC(F)(F)CC1)c1cnc2ccccc2n1` (stereo partly drawn) [Quinoxaline-2-carboxylic acid [(1S,2S)-1-benzyl-4-(4,4-difluoro-cyclohexyl)-2-hydroxy-4-hydroxycarbamoyl-butyl]-amide] it is 8 nM.
For the molecule `NC(=O)C(C[C@H](O)[C@H](Cc1ccccc1)NC(=O)c1cnc2ccccc2n1)C1(O)CCCCC1` (stereo partly drawn) [Quinoxaline-2-carboxylic acid [(1S,2S)-1-benzyl-4-carbamoyl-2-hydroxy-4-(1-hydroxy-cyclohexyl)-butyl]-amide], the IC50 came out at 120 nM.
For the molecule `NC(=O)C(C[C@H](O)[C@H](Cc1ccccc1)NC(=O)c1cnc2ccccc2n1)C1CCOCC1` (stereo partly drawn) [Quinoxaline-2-carboxylic acid [(1S,2S)-1-benzyl-4-carbamoyl-2-hydroxy-4-(tetrahydro-pyran-4-yl)-butyl]-amide], half-maximal inhibition (IC50) was put at 12500 nM.
In turn, `NC(=O)C(C[C@H](O)[C@H](Cc1ccccc1)NC(=O)c1cnc2ccccc2n1)C1(O)CCC(F)(F)CC1` (stereo partly drawn) [Quinoxaline-2-carboxylic acid [(1S,2S)-1-benzyl-4-carbamoyl-4-(4,4-difluoro-1-hydroxy-cyclohexyl)-2-hydroxy-butyl]-amide] registered an IC50 of 68 nM.
The figure for `NC(=O)C(C[C@H](O)[C@H](Cc1ccccc1)NC(=O)c1cnc2ccccc2n1)C1CCC(F)(F)CC1` (stereo partly drawn) [Quinoxaline-2-carboxylic acid [(1S,2S)-1-benzyl-4-carbamoyl-4-(4,4-difluoro-cyclohexyl)-2-hydroxy-butyl]-amide] is 220 nM; for `CN1CCN(C(=O)C(CCC(C)(C)F)C[C@H](O)[C@H](Cc2ccccc2)NC(=O)c2cnc3ccccc3n2)CC1` (stereo partly drawn) [Quinoxaline-2-carboxylic acid [(1S,2S)-1-benzyl-7-fluoro-2-hydroxy-7-methyl-4-(4-methyl-piperazine-1-carbonyl)-octyl]-amide] it is 7050 nM.
Regarding `CC(C)(F)CCC(C[C@H](O)[C@H](Cc1ccccc1)NC(=O)c1cnc2ccccc2n1)C(=O)N1CCCC1` (stereo partly drawn) [Quinoxaline-2-carboxylic acid [(1S,2S)-1-benzyl-7-fluoro-2-hydroxy-7-methyl-4-(pyrrolidine-1-carbonyl)-octyl]-amide], the midpoint of inhibition, the IC50, lay at 740 nM.
Molecule `CC(C)(O)CCC(C[C@H](O)[C@H](Cc1ccccc1F)NC(=O)c1cnc2ccccc2n1)C(N)=O` (stereo partly drawn) [Quinoxaline-2-carboxylic acid [(1S,2S)-4-carbamoyl-1-(2-fluoro-benzyl)-2,7-dihydroxy-7-methyl-octyl]-amide] showed an IC50 of 680 nM.
